Values quoted from earlier work, collected in patent US5888537A, “Vinca alkaloid vesicles with enhanced efficacy and tumor targeting properties” (priority 1997, dated 1999).
Read-outs that look alike come from different tables or passages of the source.

Conditions: clinical use, background

SMILES | side effect (listed as Vincristine) | side effect (listed as vincristine) | side effect
CC[C@]1(O)C[C@H]2CN(CCc3c([nH]c4ccccc34)[C@@](C(=O)OC)(c3cc4c(cc3OC)N(C=O)[C@H]3[C@@](O)(C(=O)OC)[C@H](OC(C)=O)[C@]5(CC)C=CCN6CC[C@]43[C@@H]65)C2)C1 [Free Vcr, vincristine] | Neurotoxicity | Alopecia and hair loss | 
CC[C@]1(O)C[C@@H]2CN(CCc3c([nH]c4ccccc34)[C@@](C(=O)OC)(c3cc4c(cc3OC)N(C)[C@H]3[C@@](O)(C(=O)OC)[C@H](OC(C)=O)[C@]5(CC)C=CCN6CC[C@]43[C@@H]65)C2)C1 [vinblastine] |  |  | Alopecia and hair loss
